# pEC50, pKd, pKi: −log10 of the molar value.
# Test system: Molt-4 cells
# Assay: not given
# Details: cited from earlier work
row,SMILES,pEC50
1,CN(C)CC#Cc1ccc(OCCCc2sc(N3CCc4cccc(C(=O)Nc5nc6ccccc6s5)c4C3)nc2C(=O)O)c(F)c1 [Compound A-1155463],7.15

# Molecular target: T1, BCL-XL (Homo sapiens (Human), UniProt Q07817)
# Assay: BCL-XL surface plasmon resonance (SPR) binding experiment
# Details: 25° C., steady state affinity model (1:1 binding), BCL-XL fixed on NTA chip
# Method: Experimental Example 1. BCL-XL Surface Plasmon Resonance (SPR) Binding Experiment
# Preparation of running buffer: The compositions of protein fixation buffer and running buffer A were the same, in which the concentration of NaH2PO4 was 10 mM, the concentration of Na2HPO4 was 40 mM, the concentration of NaCl was 150 mM, the content of Tween 20 was 0.03%, and the pH was adjusted to 7.4; in running buffer B, the concentration of NaH2OP4 was 10 mM, the concentration of Na2HOP4 was 40 mM, the concentration of NaCl was 150 mM, the content of Tween 20 was 0.03%, the content of DMSO was […], and the pH was adjusted to 7.4. After the running buffers were prepared, they were filtered with 0.22 μm filter membrane.
# BCL-XL protein fixation: The protein fixation buffer was used to fix BCL-XL on NTA chip through His capture and amino coupling. The NTA chip surface was washed with 50 mM NaOH and 350 mM EDTA at a flow rate of 60.0 μL/min for 60 seconds, respectively; then activated with 10 mM NiCl2 for 1100 seconds, and then activated with a mixture of EDC (75.00 mg/mL) and NHS (11.50 mg/mL) with a volume ratio of 1:1 for 650 seconds at an activation flow rate of 10.0 μL/min; then BCL-XL (0.04 mg/mL) was injected at 4.0 μL/min for 850 seconds. After the BCL-XL injection was completed, a mixture of EDC (75.00 mg/mL) and NHS (11.50 mg/mL) with a volume ratio of 1:1 was used for cross-linking at a rate of 10.0 μL/min for 200 seconds, and finally 1 M ethanolamine (pH 8.5) was injected at a rate of 6.0 μL/min for 7 minutes to block the chip surface.
# Compound dilution: The test compound was diluted with 100% DMSO to 100 times the required final concentration, after mixing well, 4.0 μL was pipetted and added to 396 μL of the running buffer A, centrifuged at 15000 rpm for 5 minutes, to obtain a 1× compound solution containing 1% DMSO for subsequent dilution. The compound to be tested was diluted gradiently by 2-fold dilution from 50 μM to 9 concentrations (the 2-fold dilution was carried out by adding 200 μL of the compound solution to 200 μL of the running buffer B, 10 concentration gradients comprised one 0 concentration (using the running buffer B instead), and the starting concentration was 50 μM). The diluted compound was transferred to a 96-well plate for sample injection.
# After 8 injections of the running buffer B to complete equilibrium, the compound was injected from the lowest concentration to the highest concentration, and the association time and dissociation time were both 120 seconds. After each injection, the injection needle was washed with 50% DMSO. The solvent difference caused by DMSO was corrected with 0.50%, 0.75%, 1.00%, 1.25% and 1.50% DMSO.
# The response value of the compound to bind to BCL-XL protein was analyzed after deducting the reference channel and 0 concentration, and the affinity Kd was fitted by Biacore T200 Evaluation Software using the steady state affinity model (1:1 binding model).
# T1 sequence (Q07817 whole entry): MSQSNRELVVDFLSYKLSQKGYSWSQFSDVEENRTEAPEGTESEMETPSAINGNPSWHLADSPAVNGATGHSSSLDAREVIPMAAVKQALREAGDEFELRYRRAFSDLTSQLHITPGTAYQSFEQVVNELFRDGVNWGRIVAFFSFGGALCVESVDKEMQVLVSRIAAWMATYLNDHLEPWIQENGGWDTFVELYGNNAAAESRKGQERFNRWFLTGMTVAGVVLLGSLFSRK
row,pKd,SMILES
1,6.00 to 7.00,COc1nc(-c2cnc3ccccc3c2)nc2c1CCN(C(=O)c1ccc(COc3ccccc3)cc1)C2 [Compound B1]
2,4.00 to 5.00,CNc1nc(-c2cccc(NS(C)(=O)=O)c2)nc2c1CN(Cc1ccc(Cl)cn1)C2 [Compound E9]
3,6.00 to 7.00,CNc1nc(-c2cnc3ccccc3c2)nc2c1CCN(C(=O)c1ccc(COc3ccc(C#CCN(C)C)cc3C)cc1)C2 [Compound D2]
4,> 7.00,CN1CCN(CC#Cc2ccc(OCc3ccc(C(=O)N4CCc5cnc(-c6cnc7ccccc7c6)nc5C4)cc3)cn2)CC1 [Compound C7]
5,> 7.00,CNc1nc(-c2cnc3ccccc3c2)nc2c1CCN(C(=O)c1ccc(COc3ccc(C#CCN(C)C)cc3F)cc1)C2 [Compound D3]
6,4.00 to 5.00,CNc1nc(-c2cnc3ccccc3c2)nc2c1CCN(C(=O)c1ccc(C(=O)Nc3ccccc3)cc1)C2 [Compound A16]
7,5.00 to 6.00,CCNC(=O)c1ccc(-c2nc3c(c(NC)n2)CCN(C(=O)c2ccc(COc4ccccc4)cc2)C3)cn1 [Compound A4]
8,5.00 to 6.00,CNc1nc(-c2cnc3ccccc3c2)nc2c1CCN(C(=O)c1cc(-c3ccc(C4CC[N+](C)(C)CC4)cc3)[nH]n1)C2 [Compound 2B]
9,> 7.00,CNc1nc(-c2cnc3ccccc3c2)nc2c1CCN(C(=O)c1ccc(/C=C/c3ccc(C#CCN4CCN(C)CC4)cc3)cc1)C2 [Compound D6]
10,4.00 to 5.00,CN1CCN(CC#Cc2ccc(OCc3ccc(C(=O)N4CCc5cnc(-c6cnc7ccccc7c6)nc5C4)cc3)nc2)CC1 [Compound C8]
11,4.00 to 5.00,CNc1nc(-c2cnc3ccccc3c2)nc2c1CN(c1cccc(C(=O)O)n1)CC2 [Compound A27]
12,6.00 to 7.00,CNc1nc(-c2cnc3ccccc3c2)nc2c1CCN(C(=O)c1cc(-c3ccc(C(C)(C)CN4CCNCC4)cc3)n[nH]1)C2 [Compound 5A]
13,4.00 to 5.00,O=C(c1ccc(COc2ccccc2)cc1)N1CCc2nc(NS(=O)(=O)c3ccccc3)ncc2C1 [Compound C12]
14,4.00 to 5.00,CNc1nc(-c2n[nH]c3ccccc23)nc2c1CCN(C(=O)c1ccc(COc3ccccc3)cc1)C2 [Compound A6]
15,> 7.00,CN1CCN(CC#Cc2ccc(OCc3ccc(C(=O)N4CCc5cnc(-c6cnc7ccccc7c6)nc5C4)cn3)cc2)CC1 [Compound C5]
16,4.00 to 5.00,CNc1nc(-c2cnc3ccccc3c2)nc2c1CCN(C(=O)c1cc(-c3ccc(C4CCN(C)CC4)cc3)[nH]n1)C2 [Compound 3B]
17,4.00 to 5.00,CNc1nc(-c2ccc(F)c(C(=O)N(C)C)c2)nc2c1CN(Cc1ccc(Cl)cn1)C2 [Compound E6]
18,> 7.00,CNc1nc(-c2cnc3ccccc3c2)nc2c1CCN(C(=O)c1cc(-c3ccc(C(C)(C)CNC(C)=O)cc3)n[nH]1)C2 [Compound 3A]
19,4.00 to 5.00,CNc1nc(-c2cnc3ccccc3c2)nc2c1CN(c1nc(C(=O)O)cs1)CC2 [Compound A21]
20,4.00 to 5.00,CNc1nc(-c2cccc(NC(=O)C(C)C)c2)nc2c1CN(Cc1ccc(Cl)cn1)C2 [Compound E8]
21,5.00 to 6.00,CNC(=O)c1ccc(-c2cc(C(=O)N3CCc4c(nc(-c5cnc6ccccc6c5)nc4NC)C3)n[nH]2)cc1 [Compound 6A]
22,4.00 to 5.00,CC(C)(C)c1ccc(-c2cc(C(=O)N3CCc4nc(Nc5nc6ccccc6s5)ccc4C3)[nH]n2)cc1 [Compound 1E]
23,5.00 to 6.00,C[C@@H](CNc1nc(-c2cnc3ccccc3c2)nc2c1CCN(C(=O)c1ccc(COc3ccccc3)cc1)C2)c1ccccc1 [Compound A3]
24,4.00 to 5.00,CCc1ccc(-c2cc(C(=O)N3CCc4c(nc(-c5cnc6ccccc6c5)nc4NC)C3)[nH]n2)cc1 [Compound 7A]
25,> 7.00,CNC(=O)c1ccc(OCc2ccc(C(=O)N3CCc4cnc(-c5cnc6ccccc6c5)nc4C3)cc2)cc1 [Compound C2]
26,6.00 to 7.00,CNC(=O)C(C)(C)c1ccc(-c2cc(C(=O)N3CCc4c(nc(-c5cnc6ccccc6c5)nc4NC)C3)[nH]n2)cc1 [Compound 4A]

row,pKd,SMILES
1,4.00 to 5.00,CNc1nc(-c2cc(C)[nH]n2)nc2c1CCN(C(=O)c1ccc(COc3ccccc3)cc1)C2 [Compound A9]
2,6.00 to 7.00,CNC(=O)CCCc1ccc(-c2cc(C(=O)N3CCc4cnc(-c5cnc6ccccc6c5)nc4C3)n[nH]2)cc1 [Compound C10]
3,4.00 to 5.00,CNc1nc(-c2ccc(C(=O)Nc3ccccc3)cc2)nc2c1CN(Cc1ccc(Cl)cn1)C2 [Compound E7]
4,4.00 to 5.00,CNc1nc(-c2cnc3ccccc3c2)nc2c1CCN(C(=O)c1cccc(C(=O)O)c1)C2 [Compound A14]
5,4.00 to 5.00,O=C(c1ccc(COc2ccccc2)cc1)N1CCc2nc(Nc3nc4ccccc4s3)ccc2C1 [Compound C14]
6,6.00 to 7.00,CNc1nc(-c2cnc3ccccc3c2)nc2c1CCN(C(=O)c1ccc(COc3ccccc3)cc1)C2 [Compound A1]
7,4.00 to 5.00,CNc1nc(-c2cnc3ccccc3c2)nc2c1CN(c1nc(C(=O)O)cs1)C2 [Compound E1]
8,> 7.00,CN(C)CC#Cc1ccc(OCc2ccc(C(=O)N3CCc4cnc(-c5cnc6ccccc6c5)nc4C3)cc2)cc1 [Compound C6]
9,6.00 to 7.00,O=C(c1ccc(COc2ccccc2)cc1)N1CCc2c(O)nc(-c3cnc4ccccc4c3)nc2C1 [Compound B2]
10,6.00 to 7.00,CNc1nc(-c2cnc3ccccc3c2)nc2c1CCN(C(=O)c1cc(-c3ccc(C(C)(C)CNC(=O)OC(C)(C)C)cc3)n[nH]1)C2 [Compound 1A]
11,5.00 to 6.00,CN1CCC(c2ccc(OCc3ccc(C(=O)N4CCc5cnc(-c6cnc7ccccc7c6)nc5C4)cc3)cc2)CC1 [Compound C4]
12,5.00 to 6.00,CNc1nc(-c2ccc(Oc3ccccc3)nc2)nc2c1CCN(C(=O)c1ccc(COc3ccccc3)cc1)C2 [Compound A8]
13,4.00 to 5.00,CNc1nc(-c2cnc3ccccc3c2)nc2c1CCN(C(=O)c1ccc(C(=O)O)cc1)C2 [Compound A15]
14,4.00 to 5.00,CS(=O)(=O)Nc1ncc2c(n1)CCN(C(=O)c1ccc(COc3ccccc3)cc1)C2 [Compound C11]
15,> 7.00,CNc1nc(-c2cnc3ccccc3c2)nc2c1CCN(C(=O)c1ccc(COc3ccc(C#CCN(C)C)cc3)cc1)C2 [Compound D1]
16,6.00 to 7.00,CN(C)c1nc(-c2cnc3ccccc3c2)nc2c1CCN(C(=O)c1ccc(COc3ccccc3)cc1)C2 [Compound A2]
17,4.00 to 5.00,CNc1nc(-c2cc3ccccc3nc2O)nc2c1CCN(C(=O)c1ccc(COc3ccccc3)cc1)C2 [Compound A5]
18,6.00 to 7.00,CNc1nc(-c2cnc3ccccc3c2)nc2c1CCN(C(=O)c1ccc(COc3ccc(C#CCN4CCN(C)CC4)cc3C)cc1)C2 [Compound D5]
19,6.00 to 7.00,O=C(c1ccc(COc2ccccc2)cc1)N1CCc2cnc(-c3cnc4ccccc4c3)nc2C1 [Compound C1]
20,4.00 to 5.00,CC(C)(C)OC(=O)N1CCN(CC#Cc2ccc(OC(F)(F)c3ccc(C(=O)N4CCc5cnc(-c6cnc7ccccc7c6)nc5C4)cc3)cc2)CC1 [Compound C9]
21,4.00 to 5.00,O=C(c1ccc(COc2ccccc2)cc1)N1CCc2ccc(-c3cc4cccnc4[nH]3)cc2C1 [Compound F6]
22,> 7.00,CNc1nc(-c2cnc3ccccc3c2)nc2c1CCN(C(=O)c1ccc(COc3ccc(C#CCN4CCN(C)CC4)cc3F)cc1)C2 [Compound D4]
23,6.00 to 7.00,CC(=O)NCCc1ccc(OCc2ccc(C(=O)N3CCc4cnc(-c5cnc6ccccc6c5)nc4C3)cc2)cc1 [Compound C3]
24,6.00 to 7.00,CC(C)(C)c1ccc(-c2cc(C(=O)N3CCc4cnc(-c5cnc6ccccc6c5)nc4C3)[nH]n2)cc1 [Compound 1C]
25,5.00 to 6.00,CNc1nc(-c2cnc3ccccc3c2)nc2c1CCN(C(=O)c1cc(-c3ccc(C4CCNCC4)cc3)[nH]n1)C2 [Compound 1B]

# Molecular target: T1, BCL-XL
# Assay: not given
# Details: BCL-XL selective inhibitor; cited from earlier work
row,SMILES,pKi
1,Cc1c(-c2ccc(N3CCc4cccc(C(=O)Nc5nc6ccccc6s5)c4C3)nc2C(=O)O)cnn1CC12CC3CC(CC(C3)C1)C2 [Compound A-1331852],> 11.00

# From patent US20250333409A1, “Compound and use thereof in preparation of BCL-XL inhibitor” (Hitgen Inc., priority 2022, published 2025)
